Data published in patent US9125904B1, “Biphenyl imidazoles and related compounds useful for treating HCV infections” (ACHILLION PHARMACEUTICALS, INC., priority 2010, dated 2015).

System: HCV replicon
Assay: HCV replicon replication assay (NPT ELISA)
Assay type: cell-based
Details: Hepatitis C virus, 72 h; Huh-7 HCV replicon-containing cells, three days; class symbols; read-out: EC50
Protocol: Compounds claimed herein are tested for the ability to inhibit viral replication of the Hepatitis C replicon in cultured cells in which the HCV replicon construct has been incorporated. The HCV replicon system was described by Bartenschlager, et. al (Science, 285, pp. 110-113 (1999)). The replicon system is predictive of in vivo anti-HCV activity; compounds that are active in humans uniformly evidence activity in the replicon assay.
In this assay HCV replicon containing cells are treated with different concentrations of the test compound to ascertain the ability of the test compound to suppress replication of the HCV replicon. As a positive control, HCV replicon-containing cells are treated with different concentrations of interferon alpha, a known inhibitor of HCV replication. The replicon assay system includes Neomycin Phosphotransferase (NPT) as a component of the replicon itself in order to detect the transcription of replicon gene products in the host cell. Cells in which the HCV replicon is actively replicating have high levels of NPT; the level of NPT is proportional to HCV replication. […] The NPT level of each sample is measured using a captured ELISA.
A protocol for testing compounds for the ability to inhibit viral replication of the Hepatitis C replicon cultured cells in which the replicon construct has been incorporated, follows.
The HCV replicon contains, 5′-3′, the HCV-IRES, the neomycin phosphotransferase (neo) gene, the IRES of encephalomyocarditis virus, which directs translation of HCV sequences NS3 to NS5B, and the 3′-NTR. The sequence of the HCV replicon has been deposited in GenBank (Accession no. AJ242652).
The replicon is transfected into Huh-7 cells using standard methods such as electroporation.
The equipment and materials include, but are not limited to, Huh-7 HCV replicon-containing cells, maintenance media (DMEM (Dulbecco's modified Eagle media) supplemented with 10% FBS, L-glutamine, non-essential amino acids, penicillin (100 units/ml), streptomycin (100 micrograms/ml), and 500 micrograms/ml of Geneticin (G418), screening media (DMEM supplemented with 10% FBS, L-glutamine, non-essential amino acids, penicillin (100 units/ml) and streptomycin (100 micrograms/ml)), 96 well tissue culture plates (flat bottom), 96 well plates (U bottom for drug dilution), Interferon alpha for positive control, fixation reagent (such as methanol: acetone), primary antibody (rabbit anti-NPTII), secondary antibody: Eu-N1 1, and enhancement solution.
HCV replicon-containing cells support high levels of viral RNA replicon replication when their density is suitable. Over-confluency causes decreased viral RNA replication. Therefore, cells must be kept growing in log phase in the presence of 500 micrograms/ml of G418. Generally, cells should be passed twice a week at 1: 4-6 dilution. Cell maintenance is conducted as follows:
HCV replicon-containing cells are examined under a microscope to ensure that cells growing well. Cells are rinsed once with PBS and 2 ml trypsin is added. The cell/trypsin mixture is incubated at 37° C. in a CO2 incubator for 3-5 minutes. After incubation 10 ml of complete media is added to stop the trypsinization reaction. Cells are blown gently, put into a 15 ml tube, and spun at 1200 rpm for 4 minutes. The trypsin/medium solution is removed. Medium (5 ml) is added and the cells are mixed carefully. The cells are counted.
The cells are then seeded onto 96-well plates at a density of 6000-7500 cells/100 microliters/well (6−7.5×10^5 cells/10 ml/plate). The plates are then incubated at 37° C. in a 5% CO2 incubator.
Cells are examined under a microscope approximated 24 hours after seeding and prior to adding drugs. If counting and dilution were performed correctly, cells are 60-70% confluent and nearly all cells should attach and spread evenly in the well.
HCV replicon-containing cells are rinsed with once PBS once; 2 mls of trypsin are then added. Cells are incubated at 37° C. in a 5% CO2 incubator for 3-5 minutes. […]

COC(=O)N[C@H](C(=O)N1C2CCC(C2)C1c1ncc(-c2ccc(-c3ccc(-c4cnc([C@@H]5CCCN5C(=O)[C@@H](NC(=O)OC)C(C)C)[nH]4)cc3)cc2)[nH]1)C(C)C (some centres unmarked) [Compound 57] and COC(=O)N[C@H](C(=O)N1C2CC(F)C(C2)C1c1ncc(-c2ccc(-c3ccc(-c4cnc([C@@H]5CCCN5C(=O)[C@@H](NC(=O)OC)C(C)C)[nH]4)cc3)cc2)[nH]1)C(C)C (some centres unmarked) [Compound 73] cannot be ordered by EC50: < 5 nM for the first, < 5 nM for the second.

COC(=O)N[C@H](C(=O)N1CCCCCC1c1nc(-c2ccc(-c3ccc(-c4c[nH]c(C5CCCN5C(=O)[C@@H](NC(=O)OC)C(C)C)n4)cc3)cc2)c[nH]1)C(C)C (some centres unmarked) [Compound 59] and COC(=O)N[C@H](C(=O)N1CCCCCC1c1nc(-c2ccc(-c3ccc(-c4c[nH]c(C5CCCCCN5C(=O)[C@@H](NC(=O)OC)C(C)C)n4)cc3)cc2)c[nH]1)C(C)C (stereo partly drawn) [Compound 61, dimethyl (2S,2′S)-1,1′-(2,2′-(4,4′-(biphenyl-4,4′-diyl)bis(1H-imidazole-4,2-diyl))bis(azepane-2,1-diyl))bis(3-methyl-1-oxobutane-2,1-diyl)dicarbamate] cannot be ordered by EC50: < 5 nM for the first, < 50 nM for the second.

COC(=O)NC(C(=O)C1C(c2nc(-c3ccc(-c4ccc(-c5cnc([C@@H]6CCCN6C(=O)[C@@H](NC(=O)OC)C(C)C)[nH]5)cc4)cc3)c[nH]2)C2CC1[C@H](F)[C@@H]2F)C(C)C (some centres unmarked) [Compound 60] and COC(=O)N[C@H](C(=O)N1CCCCCC1c1nc(-c2ccc(-c3ccc(-c4c[nH]c(C5C6CCC(C6)N5C(=O)[C@@H](NC(=O)OC)C(C)C)n4)cc3)cc2)c[nH]1)C(C)C (some centres unmarked) [Compound 63] cannot be ordered by EC50: < 5 nM for the first, < 5 nM for the second.

COC(=O)NC(C(=O)N1C2CCC(C2)C1c1nc(-c2ccc(-c3ccc(-c4c[nH]c(C5C=CCN5C(=O)[C@@H](NC(=O)OC)C(C)C)n4)cc3)cc2)c[nH]1)C(C)C (some centres unmarked) [Compound 62] and COC(=O)N[C@H](C(=O)N1C2CCC(C2)[C@H]1c1nc(-c2ccc(-c3c[nH]c([C@@H]4C5CCC(C5)N4C(=O)[C@@H](NC(=O)OC)C(C)C)n3)cc2)c[nH]1)C(C)C [Compound 74] cannot be ordered by EC50: < 5 nM for the first, < 50 nM for the second.

COC(=O)N[C@H](C(=O)N1CCC[C@H]1C1=NC(c2ccc(-c3ccc4[nH]c([C@@H]5C6CCC(C6)N5C(=O)[C@@H](NC(=O)OC)C(C)C)nc4c3)cc2)CN1)C(C)C (some centres unmarked) [Compound 65] and COC(=O)N[C@H](C(=O)N1CCC[C@H]1c1ncc(-c2ccc(-c3ccc4oc(-c5cnc([C@@H]6C7CCC(C7)N6C(=O)[C@@H](NC(=O)OC)C(C)C)[nH]5)cc4c3)cc2)[nH]1)C(C)C (some centres unmarked) [Compound 70] cannot be ordered by EC50: < 5 nM for the first, < 5 nM for the second.

COC(=O)N[C@H](C(=O)N1CCC[C@H]1c1ncc(-c2cc3cc(-c4ccc(-c5cnc([C@@H]6C7CCC(C7)N6C(=O)[C@@H](NC(=O)OC)C(C)C)[nH]5)cc4)ccc3o2)[nH]1)C(C)C (some centres unmarked) [Compound 71] and COC(=O)N[C@H](C(=O)N1C2CCC(C2)[C@H]1c1nc(-c2ccc(/C=C/c3ccc(-c4cnc([C@@H]5C6CCC(C6)N5C(=O)[C@@H](NC(=O)OC)C(C)C)[nH]4)cc3)cc2)c[nH]1)C(C)C (some centres unmarked) [Compound 72] cannot be ordered by EC50: < 5 nM for the first, < 5 nM for the second.

With COC(=O)N[C@H](C(=O)N1C2CCC(C2)[C@H]1c1nc(-c2ccc3c(c2)Cc2cc(-c4c[nH]c([C@@H]5C6CCC(C6)N5C(=O)[C@@H](NC(=O)OC)C(C)C)n4)ccc2-3)c[nH]1)C(C)C [Compound 75] the EC50 was < 5 nM.

Same assay, conditions: Hepatitis C virus, 72 h; Huh-7 HCV replicon-containing cells, three days; numeric cells; read-out: EC50

COC(=O)NC(C(=O)N1C2CCC(C2)C1c1nc2ccc(-c3ccc4[nH]c(C5C6CCC(C6)N5C(=O)[C@@H](NC(=O)OC)C(C)C)nc4c3)cc2[nH]1)C(C)C (some centres unmarked) [Compound 64] showed an EC50 of 619 nM.
